Source: patent US20230135524A1, “ARYL HYDANTOIN HETEROCYCLES AND METHODS OF USE” (The United States of America,as represented by the …, priority 2020, published 2023)
Read-outs that look alike come from different tables or passages of the source. Each block holds one compound with its values, some of them ahead of it.

What was measured:
Assay type in all cases: cell-based
DU145 = assay: IncuCyte % confluence cell growth inhibition, DU145; conditions: Homo sapiens
Description: (§1) Images were then analyzed to discern the % confluence of cells in each well. IC50 values were calculated from dose response curves of the % cell growth inhibition relative to DMSO control at the same time point per each cell line.

LAPC4 = assay: IncuCyte % confluence cell growth inhibition, LAPC4; conditions: Homo sapiens
Description: as §1

LNCaP = assay: IncuCyte % confluence cell growth inhibition, LNCaP; conditions: Homo sapiens, read-out: IC50 values (μM), LNCaP
Description: as §1

LNCAP AR = assay: IncuCyte % confluence cell growth inhibition, LNCAP AR; conditions: read-out: IC50 values (μM), LNCAP AR
Description: as §1

PC3 = assay: IncuCyte % confluence cell growth inhibition, PC3; conditions: Homo sapiens
Description: as §1

22Rv1 = assay: IncuCyte % confluence cell growth inhibition, 22Rv1; conditions: Homo sapiens
Description: as §1

LNCaP ARin vivo = assay: IncuCyte % confluence cell growth inhibition, LNCaP ARin vivo; conditions: Homo sapiens, read-out: IC50 values (μM), LNCaP ARin vivo
Description: as §1

AR = biological target: T1, AR (Homo sapiens, UniProt P10275); assay: AR transcriptional output, ARE-luciferase assay in HEK 293T cells; conditions: for antagonist or inverse agonist activity on AR transcriptional activity (in words): 10 μM, HEK 293T, FIG. 6A; for activity at 10 µM: HEK-293T, read-out: AR antagonist activity (% RLU)
T1 construct: host or cells: HEK 293T
T1 sequence (P10275 1-920): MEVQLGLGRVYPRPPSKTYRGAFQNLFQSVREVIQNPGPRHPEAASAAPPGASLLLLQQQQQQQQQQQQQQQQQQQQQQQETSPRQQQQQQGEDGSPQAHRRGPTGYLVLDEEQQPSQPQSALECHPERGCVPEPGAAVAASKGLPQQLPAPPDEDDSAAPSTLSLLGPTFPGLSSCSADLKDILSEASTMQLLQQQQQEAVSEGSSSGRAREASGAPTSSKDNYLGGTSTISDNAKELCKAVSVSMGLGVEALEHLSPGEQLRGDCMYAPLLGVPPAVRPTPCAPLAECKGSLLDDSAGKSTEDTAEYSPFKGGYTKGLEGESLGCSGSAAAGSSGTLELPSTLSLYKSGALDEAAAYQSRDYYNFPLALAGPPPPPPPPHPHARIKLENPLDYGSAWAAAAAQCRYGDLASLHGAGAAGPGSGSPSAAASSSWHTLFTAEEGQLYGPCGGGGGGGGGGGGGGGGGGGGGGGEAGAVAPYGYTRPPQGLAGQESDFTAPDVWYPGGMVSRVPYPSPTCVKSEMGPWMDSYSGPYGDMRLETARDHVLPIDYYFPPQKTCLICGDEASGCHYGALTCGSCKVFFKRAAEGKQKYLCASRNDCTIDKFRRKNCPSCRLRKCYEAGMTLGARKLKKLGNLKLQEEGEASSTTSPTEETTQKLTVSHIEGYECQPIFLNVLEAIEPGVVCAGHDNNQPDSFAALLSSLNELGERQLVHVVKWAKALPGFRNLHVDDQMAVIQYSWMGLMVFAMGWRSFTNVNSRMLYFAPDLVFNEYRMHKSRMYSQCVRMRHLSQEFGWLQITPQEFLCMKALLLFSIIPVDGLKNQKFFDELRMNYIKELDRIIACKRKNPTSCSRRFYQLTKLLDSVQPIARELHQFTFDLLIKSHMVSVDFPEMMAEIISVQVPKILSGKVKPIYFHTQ
Description: 100% is set to the activity with 200 μM testosterone, and 0% is set to the basal level (no ligand).
Cells were maintained in steroid free media, and stimulated with 200 μM testosterone, followed immediately by administration of exemplary compounds (Table 1, below). RLU is relative luciferase units, relative to DMSO control with 200 μM testosterone alone. Data represent an average of 3 independent experiments performed in triplicate wells per compounds at 10 μM.
Cells were maintained in steroid-free media, and stimulated with 200 μM testosterone, followed immediately by administration of a test compound. […] Compounds were dosed at 10 μM in FIGS. 6A and 6B.
Cells were maintained in steroid-free media, and stimulated with 200 μM testosterone, followed immediately by administration of a test compound.

LNCaP ARF876L = assay: IncuCyte % confluence cell growth inhibition, LNCaP ARF876L; conditions: Homo sapiens, AR-positive, AR mutation F876L, % cell growth inhibition relative to DMSO
Description: as §1

[1] = DU-145, AR-negative, % cell growth inhibition relative to DMSO, read-out: IC50 values (μM), DU145
[2] = LAPC4, AR-positive, AR w.t., % cell growth inhibition relative to DMSO, read-out: IC50 values (μM), LAPC4
[3] = AR-positive, AR mutation T877A, % cell growth inhibition relative to DMSO
[4] = AR-positive, AR w.t., % cell growth inhibition relative to DMSO
[5] = PC-3, AR-negative, % cell growth inhibition relative to DMSO, read-out: IC50 values (μM), PC3
[6] = 22Rv1, AR-positive, AR mutation H874Y, % cell growth inhibition relative to DMSO, read-out: IC50 values (μM), 22Rv1
[7] = DU-145, read-out: IC50 values (μM), DU145
[8] = LAPC4, read-out: IC50 values (μM), LAPC4
[9] = PC-3, read-out: IC50 values (μM), PC3
[10] = 22Rv1, read-out: IC50 values (μM), 22Rv1

IC50 (DU145; [1]): 61.8 µM | IC50 (LNCaP; [3]): 34.5 µM | IC50 (LNCAP AR; [4]): 98.9 µM | IC50 (PC3; [5]): 300 µM | IC50 (22Rv1; [6]): 32.5 µM | IC50 (LNCaP ARin vivo; [4]): 270 µM
Structure (SMILES): CNC(=O)c1ccc(N2C(=S)N(c3cnc(C#N)c(C(F)(F)F)c3)C(=O)C23CCC3)cc1F [ARN509, reference compound]
IC50 (LAPC4; [2]): 86 µM

IC50 (DU145; [1]): 61.2 µM | IC50 (LNCaP; [3]): 76.9 µM | IC50 (LNCAP AR; [4]): 25.8 µM | IC50 (PC3; [5]): 122 µM | IC50 (22Rv1; [6]): 26.8 µM
Structure (SMILES): CC(=O)N1CCN(CCOc2ccc(C3CCN(C4=Nn5c(nnc5C(F)(F)F)CC4)CC3)cc2)CC1 [AZD3514, reference compound]
IC50 (LAPC4; [2]): 30.5 µM

IC50 (LNCAP AR; [4]): 80.5 µM | IC50 (PC3; [5]): 239 µM | IC50 (22Rv1; [6]): 53.4 µM
Structure (SMILES): CC(O)(CS(=O)(=O)c1ccc(F)cc1)C(=O)Nc1ccc(C#N)c(C(F)(F)F)c1 (centres unmarked) [Bicalutamide, bicalutamide, reference compound]
IC50 (LAPC4; [2]): 67 µM

Structure (SMILES): C#Cc1ccc(CN2C(=O)N(c3ccc(C#N)c(C(F)(F)F)c3)C(=O)C2(C)C)cc1 [Compound 6, 4-[3-[(4-ethynylphenyl)methyl]-4,4-dimethyl-2,5-dioxo-1-imidazolidinyl]-2-(trifluoromethyl)-benzonitrile]
antagonist or inverse agonist activity on AR transcriptional activity (in words) (AR): relatively weak antagonists | activity at 10 µM (AR): 138%

Structure (SMILES): C#Cc1ccc(CN2C(=S)N(c3ccc(C#N)c(C(F)(F)F)c3)C(=O)C2(C)C)cc1 [Compound 10, 4-(3-(4-ethynylbenzyl)-4,4-dimethyl-5-oxo-2-thioxoimidazolidin-1-yl)-2-(trifluoromethyl)benzonitrile]
antagonist or inverse agonist activity on AR transcriptional activity (in words) (AR): relatively weak antagonists | activity at 10 µM (AR): 95%

Structure (SMILES): C#Cc1ccc(N2C(=S)N(c3ccc(C#N)c(C(F)(F)F)c3)C(=O)C2(C)C)cc1 [Compound 13, 4-(3-(4-ethynylphenyl)-4,4-dimethyl-5-oxo-2-thioxoimidazolidin-1-yl)-2-(trifluoromethyl)benzonitrile]
antagonist or inverse agonist activity on AR transcriptional activity (in words) (AR): relatively weak antagonists | activity at 10 µM (AR): 59%

Structure (SMILES): Cn1cc(-c2ccc(CN3C(=O)N(c4ccc(C#N)c(C(F)(F)F)c4)C(=O)C3(C)C)cc2)nn1 [Compound 14b, 4-(4,4-dimethyl-3-(4-(1-methyl-1H-1,2,3-triazol-4-yl)benzyl)-2,5-dioxoimidazolidin-1-yl)-2-(trifluoromethyl)benzonitrile]
activity at 10 µM (AR): -3%

Structure (SMILES): Cn1cc(-c2ccc(CN3C(=S)N(c4ccc(C#N)c(C(F)(F)F)c4)C(=O)C3(C)C)cc2)nn1 [Compound 15b, 4-(4,4-dimethyl-3-(4-(1-methyl-1H-1,2,3-triazol-4-yl)benzyl)-5-oxo-2-thioxoimidazolidin-1-yl)-2-(trifluoromethyl)benzonitrile]
activity at 10 µM (AR): -41%

Structure (SMILES): CCn1cc(-c2ccc(CN3C(=S)N(c4ccc(C#N)c(C(F)(F)F)c4)C(=O)C3(C)C)cc2)nn1 [Compound 15c, 4-(3-(4-(1-ethyl-1H-1,2,3-triazol-4-yl)benzyl)-4,4-dimethyl-5-oxo-2-thioxoimidazolidin-1-yl)-2-(trifluoromethyl)benzonitrile]
activity at 10 µM (AR): 3%

Structure (SMILES): CCCn1cc(-c2ccc(CN3C(=S)N(c4ccc(C#N)c(C(F)(F)F)c4)C(=O)C3(C)C)cc2)nn1 [Compound 15d, 4-(4,4-dimethyl-5-oxo-3-(4-(1-propyl-1H-1,2,3-triazol-4-yl)benzyl)-2-thioxoimidazolidin-1-yl)-2-(trifluoromethyl)benzonitrile]
activity at 10 µM (AR): 4%

Structure (SMILES): CCCCn1cc(-c2ccc(CN3C(=S)N(c4ccc(C#N)c(C(F)(F)F)c4)C(=O)C3(C)C)cc2)nn1 [Compound 15e, 4-(3-(4-(1-butyl-1H-1,2,3-triazol-4-yl)benzyl)-4,4-dimethyl-5-oxo-2-thioxoimidazolidin-1-yl)-2-(trifluoromethyl)benzonitrile]
activity at 10 µM (AR): -3%

Structure (SMILES): CC1(C)C(=O)N(c2ccc(C#N)c(C(F)(F)F)c2)C(=S)N1Cc1c[nH]nn1 [Compound 18a]
activity at 10 µM (AR): 412%

Structure (SMILES): CC1(C)C(=O)N(c2ccc(C#N)c(C(F)(F)F)c2)C(=O)N1Cc1ccc(-c2c[nH]nn2)cc1F [Compound 19a, 4-(3-(2-Fluoro-4-(1H-1,2,3-triazol-4-yl)benzyl)-4,4-dimethyl-2,5-dioxoimidazolidin-1-yl)-2-(trifluoromethyl)benzonitrile]
IC50 (DU145; [7]): 46.1 µM | IC50 (LNCaP ARF876L): 41.4 µM | IC50 (LAPC4; [8]): 30.7 µM | IC50 (LNCaP): 39 µM | IC50 (LNCAP AR): 29.4 µM | IC50 (PC3; [9]): 63.4 µM | IC50 (22Rv1; [10]): 36.7 µM | IC50 (LNCaP ARin vivo): 35.8 µM

Structure (SMILES): CC1(C)C(=O)N(c2ccc(C#N)c(C(F)(F)F)c2)C(=O)N1Cc1ccc(-c2c[nH]nn2)c(F)c1 [Compound 19b, 4-(3-(3-Fluoro-4-(1H-1,2,3-triazol-4-yl)benzyl)-4,4-dimethyl-2,5-dioxoimidazolidin-1-yl)-2-(trifluoromethyl)benzonitrile]
IC50 (DU145; [7]): 65 µM | IC50 (LNCaP ARF876L): 49.4 µM | IC50 (LAPC4; [8]): 33.1 µM | IC50 (LNCaP): 43.1 µM | IC50 (LNCAP AR): 35.1 µM | IC50 (PC3; [9]): 60.9 µM | IC50 (22Rv1; [10]): 40.6 µM | IC50 (LNCaP ARin vivo): 60.1 µM

Structure (SMILES): CC1(C)C(=O)N(c2ccc(C#N)c(C(F)(F)F)c2)C(=S)N1Cc1ccc(-c2c[nH]nn2)c(F)c1 [Compound 19c, 4-(3-(3-Fluoro-4-(1H-1,2,3-triazol-4-yl)benzyl)-4,4-dimethyl-5-oxo-2-thioxoimidazolidin-1-yl)-2-(trifluoromethyl)benzonitrile]
IC50 (DU145; [7]): 114 µM | IC50 (LNCaP ARF876L): 33.9 µM | IC50 (LAPC4; [8]): 17.9 µM | IC50 (LNCaP): 36.2 µM | IC50 (LNCAP AR): 28 µM | IC50 (PC3; [9]): 59.9 µM | IC50 (22Rv1; [10]): 25.3 µM | IC50 (LNCaP ARin vivo): 34 µM

Structure (SMILES): CC1(C)C(=O)N(c2ccc(C#N)c(C(F)(F)F)c2)C(=O)N1Cc1ccc(-n2ccnn2)cc1 [Compound 20a, 4-(3-(4-(1H-1,2,3-triazol-1-yl)benzyl)-4,4-dimethyl-2,5-dioxoimidazolidin-1-yl)-2-(trifluoromethyl)benzonitrile]
activity at 10 µM (AR): 57%

Structure (SMILES): CC1(C)C(=O)N(c2ccc(C#N)c(C(F)(F)F)c2)C(=O)N1Cc1ccc(-n2cc(CO)nn2)cc1 [Compound 20b, 4-(3-(4-(4-(hydroxymethyl)-1H-1,2,3-triazol-1-yl)benzyl)-4,4-dimethyl-2,5-dioxoimidazolidin-1-yl) 2-(trifluoromethyl)benzonitrile]
activity at 10 µM (AR): 73%

Structure (SMILES): CC1(C)C(=O)N(c2ccc(C#N)c(C(F)(F)F)c2)C(=O)N1Cc1ccc(-n2cc(CCO)nn2)cc1 [Compound 20c, 4-(3-(4-(4-(2-hydroxyethyl)-1H-1,2,3-triazol-1-yl)benzyl)-4,4-dimethyl-2,5-dioxoimidazolidin-1-yl)-2-(trifluoromethyl)benzonitrile]
activity at 10 µM (AR): -1%
